This is an account of results in patent USRE40198E1, “Method and device for electrochemical immunoassay of multiple analytes” (Roche Diagnostics Operations, Inc., priority 1998, dated 2008).

In data set [1] the test system is hemoglobin Alc antibodies (PAB IS, PAB DE, MAB). Description: Reversal of antibody inhibition with BSA-Alc polyhaptan. The class given is binding. The text has this: Reversal curves were then generated using a series of dilutions ofBAS-Alc-polyhaptan with a−1:1 Alc:BAS. The BAS-Alc acts as our sample and binds to the antibody.
Data set [2] can be described thus: Stability of mediator labels (analytical HPLC, % inhibition values over time). The format is physicochemical. The following applies: for Stability in solution: stored as solution. On the procedure:
(§1) Samplers frozen at−20° C. appear to be stable.

The test system of data set [3] is hemoglobin Alc antibody PAB IS (polyclonal, immunosorbent purified). Description: Inhibition of osmium mediator-peptide conjugate current by antibody (enzyme amplified amperometry, palladium electrodes). The format is binding, sheep. The following applies: for Inhibition with Antibody, PAB IS: maximum inhibition. The text has this: 3. Antibodies for the analytes (HbAlc and HbAO) which react specifically with the N-terminal peptides which have been incorporated into the conjugate are provided by standard methods for producing polyclonal antibodies. In this case, sheep were immunized with carrier proteins to which were conjugated the synthetic peptide sequences for HbAlc and HbA0. Following the appropriate immunization schedule, the sheep were bled, and the antibody isolated from the blood via ion exchange chromatography, followed by immunosorbent purification on a column of the same N-terminal peptide with a different linker.
(§2) 4. Appropriate stoichiometry of the reaction was determined for the two reactions independently by methods standard for immunoassay development. A solution containing a fixed amount of labeled conjugate was mixed with a solution with varying amounts of antibody, and, following an appropriate incubation period, the amount of free conjugate remaining was measured on the IDA electrode using the procedure described above.
(§3) Polyclonal DE (ion-exchange) purified sheep antibody is used in the TinaQuant HbAlc assay. IS (immunosorbent) antibody is prepared using standard IS purification methodology. Samples of a monoclonal antibody were also obtained for evaluation. Inhibition curves were performed in solution with all mixing occurring in microcentrifuge tubes. Inhibition curves with the three hemoglobin Alc antibodies (PAB IS, PAB DE, and MAB) were generated by fixing OS-DSG-Alc at 5μM and varying the antibody concentration. […] From the inhibition curves we were able to select reasonable concentrations of antibody for maximum reversal with Alc samples.
(§4) While these feasibility studies for a HbAlc immunoassay used an enzyme mediated amplification method (Glucdor/PQQ/glucose was used to regenerate reduced mediator after oxidation at the electrode surface providing a higher diffusion controlled current is given by the cottrell equation), they are considered to be indicative of results attainable with the use of IDA electrodes with bipotentiostatic control is most preferred for measuring mediator labeled conjugates in accordance with this invention.

For data set [4], the system named is hemoglobin Alc antibody PAB DE (polyclonal, ion-exchange purified). Described as above. The format is binding, sheep. To be noted: for Inhibition with Antibody, PAB DE: maximum inhibition. The protocol:
as §2, §3, §4

The subject of data set [5] is hemoglobin Alc antibody MAB (monoclonal). The description is as above. The following applies: for Inhibition with Antibody, MAB: maximum inhibition. The format is binding. The protocol:
as §2, §3, §4

The test system of data set [6] is HbAlc antibodies. Description: Inhibition curves of mediator labels, antibody not given. The format is binding. The protocol:
as §3, §1

In data set [7] the test system is Sheep B<HbAo> antibody. As to the kind of experiment: Inhibition of Ao conjugate current by antibody. The format is binding.
Data set [8] concerns HbAo antibody. As to the kind of experiment: Reversal of antibody inhibition with AoHB-peptide #1. The format is binding.
For data set [9], the system named is Zymed rabbit antibodies. Description: Inhibition of Ao conjugate current by antibody. The format is binding.
For data set [10], the target named is glucose oxidase (Aspergillus niger, UniProt P13006). The following applies: with glucose oxidase; cited from earlier work.
Chain of glucose oxidase (P13006 17-605, species assumed): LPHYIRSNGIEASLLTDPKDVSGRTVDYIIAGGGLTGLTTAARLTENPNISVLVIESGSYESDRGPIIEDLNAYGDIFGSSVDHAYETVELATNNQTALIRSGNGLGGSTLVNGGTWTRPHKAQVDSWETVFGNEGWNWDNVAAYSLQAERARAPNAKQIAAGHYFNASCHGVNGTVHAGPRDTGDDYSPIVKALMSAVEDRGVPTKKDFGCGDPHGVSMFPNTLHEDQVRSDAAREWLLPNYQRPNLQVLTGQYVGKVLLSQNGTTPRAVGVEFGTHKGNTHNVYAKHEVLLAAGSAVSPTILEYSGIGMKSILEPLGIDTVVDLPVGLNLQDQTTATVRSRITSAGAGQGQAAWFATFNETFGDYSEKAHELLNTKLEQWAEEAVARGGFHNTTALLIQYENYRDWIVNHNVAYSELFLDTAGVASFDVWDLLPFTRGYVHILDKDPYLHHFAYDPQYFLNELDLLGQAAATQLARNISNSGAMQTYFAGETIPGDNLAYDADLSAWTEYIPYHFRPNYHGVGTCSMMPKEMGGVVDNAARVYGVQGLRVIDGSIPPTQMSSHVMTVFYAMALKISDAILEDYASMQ

With `CC(C)CC(NC(=O)C(Cc1cnc[nH]1)NC(=O)C(NCC1(O)OCC(O)C(O)C1O)C(C)C)C(=O)NC(C(=O)NC(CCCCNC(=O)CCCC(=O)NCCc1c[n+]([Os]23([Cl])([n+]4ccccc4-c4cccc[n+]42)[n+]2ccccc2-c2cccc[n+]23)c[nH]1)C(=O)O)C(C)O` (centres unmarked) [Os-DSG-Alc], the “Reversal with BSA-Alc polyhaptan” value in data set [1] is listed as “Yes with BSA-Alc”. Further, the “Stability lyophilized and frozen” value in data set [2] (lyophilized form and frozen in solution at -20 C (40 and 80 uM)) is recorded as “stable”. The “Antibody concentration at which maximum change of inhibition is reached, PAB IS” value in data set [3] (conjugate fixed at 5 μM) is approximately 5 µM. Also, in data set [3], the “Inhibition with Antibody, PAB IS” value was “PAB IS (≦91%)”. Further, the “Amount of PAB DE antibody needed to get close to maximum inhibition, relative to PAB IS and MAB” value in data set [4] (conjugate fixed at 5 μM) is recorded as “more than 3 times”. Also, the “Inhibition with Antibody, PAB DE” value in data set [4] is reported as “PAB DE (<87%)”. In addition, the “Antibody concentration at which maximum change of inhibition is reached, MAB” value in data set [5] (conjugate fixed at 5 μM) is approximately 5 µM. Moreover, in data set [5], the “Inhibition with Antibody, MAB” value is reported as “MAB (<78%)”.
Consider `CC(C)CC(NC(=O)C(Cc1cnc[nH]1)NC(=O)C(NCC1(O)OCC(O)C(O)C1O)C(C)C)C(=O)NC(C(=O)NC(CCCCNC(=O)CCCCCN1C(=O)CC(SCC(=O)NCCc2c[n+]([Os]34([Cl])([n+]5ccccc5-c5cccc[n+]53)[n+]3ccccc3-c3cccc[n+]34)c[nH]2)C1=O)C(=O)O)C(C)O` (centres unmarked) [Os-SATA-Alc], for which the “Reversal with BSA-Alc polyhaptan” value in [1] was “Yes with BSA-Alc”. For the same compound, the “Max inhibition from inhibition curve” value in data set [6] is 44%. Moreover, the Stability in solution entry in [2] was “Stability similar to SMCC”. Further, in data set [3], the “Inhibition with Antibody, PAB IS” value is listed as “PAB IS (≦44%)”.
In the case of `CC(C)CC(NC(=O)C(Cc1cnc[nH]1)NC(=O)C(N)C(C)C)C(=O)NC(C(=O)NC(CCCCNC(=O)CCCCCN1C(=O)CC(SCC(=O)NCCc2c[n+]([Os]34([Cl])([n+]5ccccc5-c5cccc[n+]53)[n+]3ccccc3-c3cccc[n+]34)c[nH]2)C1=O)C(=O)O)C(C)O` (centres unmarked) [Os-SATA-Ao], the “Inhibition with Antibody, Sheep B<HbAo>” value in data set [7] is on record as not above 84%. Further, in data set [2], the Stability in solution result is given as “unstable in solution. Conjugate”. Further, the “Reversal with AoHB-peptide #1” value in data set [8] is on record as “No with AoHB-”. Moreover, the “Inhibition with Antibody, Zymed rabbit antibodies” value in [9] is listed as “No”.
Regarding `CC(C)CC(NC(=O)C(Cc1cnc[nH]1)NC(=O)C(NCC1(O)OCC(O)C(O)C1O)C(C)C)C(=O)NC(C(=O)NC(CSC1CC(=O)N(CC2CCC(C(=O)NCCc3c[n+]([Os]45([Cl])([n+]6ccccc6-c6cccc[n+]64)[n+]4ccccc4-c4cccc[n+]45)c[nH]3)CC2)C1=O)C(=O)O)C(C)O` (centres unmarked) [Os-SMCC-Alc], the “Reversal with BSA-Alc polyhaptan” value in data set [1] is “Yes with BSA-Alc”. In data set [6], the “Max inhibition from inhibition curve” value came to 97%. Moreover, the Stability in solution result in data set [2] was “Degrades in solution”. For the same compound, in data set [3], the “Inhibition with Antibody, PAB IS” value is recorded as “PAB IS (≦92%)”. Moreover, in [4], the “Inhibition with Antibody, PAB DE” value was “PAB DE (≦97%)”. Moreover, in [5], the “Inhibition with Antibody, MAB” value is “MAB (≦50%)”.
In the case of “Bis(2,2′-bipyridyl) imidazolyl chloroosmium [Os mediator]”, the “Mediation kinetics relative to ferricyanide” value in [10] is “about 500 times faster”.
